In PubChem BioAssay AID1259407 (Chemical Carcinogenesis Research Information System (CCRIS), 2018):
The source made the active and inactive calls. The rule behind the calls is not given here.

System: CCRIS mutagenicity, Ames/micronucleus/aberration tests
Assay: CCRIS mutagenicity studies
[1] = Test System: AMES SALMONELLA TYPHIMURIUM, Strain/Indicator: TA100, Metabolic Activation: NONE, Method: STANDARD PLATE
[2] = Test System: AMES SALMONELLA TYPHIMURIUM, Strain/Indicator: TA98, Metabolic Activation: NONE, Method: STANDARD PLATE

Which results are given for `CCCCOCN(C(=O)CCl)c1c(CC)cccc1CC`?
mutagenic call [1]: inactive; negative; mutagenic call (Test System: AMES SALMONELLA TYPHIMURIUM, Strain/Indicator: TA100, Metabolic Activation: S-9 MIX, Method: STANDARD PLATE): active; positive; mutagenic call (Test System: Ames Salmonella typhimurium, Strain/Indicator: TA97, Metabolic Activation: None, Method: Suspension): inactive; negative; mutagenic call (Test System: Ames Salmonella typhimurium, Strain/Indicator: TA97, Metabolic Activation: Rat, Liver, S-9, Aroclor 1254 (10% v/v), Method: Preincubation): inactive; negative; mutagenic call (Test System: Ames Salmonella typhimurium, Strain/Indicator: TA98, Metabolic Activation: None, Method: Preincubation): inactive; negative; mutagenic call (Test System: Ames Salmonella typhimurium, Strain/Indicator: TA98, Metabolic Activation: Rat, Liver, S-9, Aroclor 1254 (10% v/v), Method: Suspension): inactive; negative; mutagenic call (Test System: Ames Salmonella typhimurium, Strain/Indicator: TA100, Metabolic Activation: None, Method: Suspension): inactive; negative; mutagenic call (Test System: Ames Salmonella typhimurium, Strain/Indicator: TA100, Metabolic Activation: Rat, Liver, S-9, Aroclor 1254 (10% v/v), Method: Suspension): inactive; negative

With `Cn1c2ccccc2c2ccccc21` as the compound, how does the mutagenic call [2] read?
The mutagenic call was “inactive; negative”.

What about the mutagenic call (Test System: AMES SALMONELLA TYPHIMURIUM, Strain/Indicator: TA98, Metabolic Activation: RAT LIVER S-9, AROCLOR 1254, Method: STANDARD PLATE) of the same compound?
Its mutagenic call is “inactive; negative”.

What about the mutagenic call [1] of the same compound?
Its mutagenic call is “inactive; negative”.

What about the mutagenic call (Test System: AMES SALMONELLA TYPHIMURIUM, Strain/Indicator: TA100, Metabolic Activation: RAT LIVER S-9, AROCLOR 1254, Method: STANDARD PLATE) of the same compound?
Its mutagenic call is “active; positive”.

What about the mutagenic call (Test System: UDS PRIMARY RAT HEPATOCYTES, Strain/Indicator: THY-INCORP, Metabolic Activation: NONE, Method: AUTORADIOGRAPHY) of the same compound?
The mutagenic call was “inactive; negative”.

Which mutagenic call (Test System: AMES SALMONELLA TYPHIMURIUM, Strain/Indicator: TA98, Metabolic Activation: HAMSTER, LIVER, S-9, AROCLOR 1254 (10%), Method: STANDARD PLATE) does the source give for `O=S(=O)(c1ccc(O)cc1)c1ccc(O)cc1` here?
The mutagenic call was “inactive; negative”.

What about the mutagenic call (Test System: AMES SALMONELLA TYPHIMURIUM, Strain/Indicator: TA98, Metabolic Activation: NONE, Method: PREINCUBATION) of the same compound?
The mutagenic call was “inactive; negative”.

And the mutagenic call [2]?
The mutagenic call was “inactive; negative”.

And the mutagenic call (Test System: AMES SALMONELLA TYPHIMURIUM, Strain/Indicator: TA98, Metabolic Activation: RAT LIVER S-9, PHENOBARBITAL AND BETA-NAPHTHOFLAVONE, Method: PREINCUBATION)?
The mutagenic call was “inactive; negative”.

And the mutagenic call (Test System: AMES SALMONELLA TYPHIMURIUM, Strain/Indicator: TA98, Metabolic Activation: RAT, LIVER, S-9, AROCLOR 1254 (10%), Method: STANDARD PLATE)?
The mutagenic call was “inactive; negative”.

And the mutagenic call (Test System: AMES SALMONELLA TYPHIMURIUM, Strain/Indicator: TA100, Metabolic Activation: HAMSTER, LIVER, S-9, AROCLOR 1254 (10%), Method: STANDARD PLATE)?
Its mutagenic call is “inactive; negative”.

And the mutagenic call (Test System: AMES SALMONELLA TYPHIMURIUM, Strain/Indicator: TA100, Metabolic Activation: NONE, Method: PREINCUBATION)?
Its mutagenic call is “inactive; negative”.

And the mutagenic call [1]?
Its mutagenic call is “inactive; negative”.

And the mutagenic call (Test System: AMES SALMONELLA TYPHIMURIUM, Strain/Indicator: TA100, Metabolic Activation: RAT LIVER S-9, PHENOBARBITAL AND BETA-NAPHTHOFLAVONE, Method: PREINCUBATION)?
The mutagenic call was “inactive; negative”.

What about the mutagenic call (Test System: AMES SALMONELLA TYPHIMURIUM, Strain/Indicator: TA100, Metabolic Activation: RAT, LIVER, S-9, AROCLOR 1254 (10%), Method: STANDARD PLATE) of the same compound?
Its mutagenic call is “inactive; negative”.

And the mutagenic call (Test System: AMES SALMONELLA TYPHIMURIUM, Strain/Indicator: TA1535, Metabolic Activation: HAMSTER, LIVER, S-9, AROCLOR 1254 (10%), Method: STANDARD PLATE)?
The mutagenic call was “inactive; negative”.

And the mutagenic call (Test System: AMES SALMONELLA TYPHIMURIUM, Strain/Indicator: TA1535, Metabolic Activation: NONE, Method: PREINCUBATION)?
Its mutagenic call is “inactive; negative”.

What about the mutagenic call (Test System: AMES SALMONELLA TYPHIMURIUM, Strain/Indicator: TA1535, Metabolic Activation: NONE, Method: STANDARD PLATE) of the same compound?
The mutagenic call was “inactive; negative”.

What about the mutagenic call (Test System: AMES SALMONELLA TYPHIMURIUM, Strain/Indicator: TA1535, Metabolic Activation: RAT LIVER S-9, PHENOBARBITAL AND BETA-NAPHTHOFLAVONE, Method: PREINCUBATION) of the same compound?
The mutagenic call was “inactive; negative”.

What about the mutagenic call (Test System: AMES SALMONELLA TYPHIMURIUM, Strain/Indicator: TA1535, Metabolic Activation: RAT, LIVER, S-9, AROCLOR 1254 (10%), Method: STANDARD PLATE) of the same compound?
Its mutagenic call is “inactive; negative”.

And the mutagenic call (Test System: AMES SALMONELLA TYPHIMURIUM, Strain/Indicator: TA1537, Metabolic Activation: HAMSTER, LIVER, S-9, AROCLOR 1254 (10%), Method: STANDARD PLATE)?
Its mutagenic call is “inactive; negative”.

What about the mutagenic call (Test System: AMES SALMONELLA TYPHIMURIUM, Strain/Indicator: TA1537, Metabolic Activation: NONE, Method: PREINCUBATION) of the same compound?
Its mutagenic call is “inactive; negative”.

What about the mutagenic call (Test System: AMES SALMONELLA TYPHIMURIUM, Strain/Indicator: TA1537, Metabolic Activation: NONE, Method: STANDARD PLATE) of the same compound?
Its mutagenic call is “inactive; negative”.

And the mutagenic call (Test System: AMES SALMONELLA TYPHIMURIUM, Strain/Indicator: TA1537, Metabolic Activation: RAT LIVER S-9, PHENOBARBITAL AND BETA-NAPHTHOFLAVONE, Method: PREINCUBATION)?
The mutagenic call was “inactive; negative”.

And the mutagenic call (Test System: AMES SALMONELLA TYPHIMURIUM, Strain/Indicator: TA1537, Metabolic Activation: RAT, LIVER, S-9, AROCLOR 1254 (10%), Method: STANDARD PLATE)?
The mutagenic call was “inactive; negative”.

What about the mutagenic call (Test System: AMES SALMONELLA TYPHIMURIUM, Strain/Indicator: TA1538, Metabolic Activation: HAMSTER, LIVER, S-9, AROCLOR 1254 (10%), Method: STANDARD PLATE) of the same compound?
The mutagenic call was “inactive; negative”.

And the mutagenic call (Test System: AMES SALMONELLA TYPHIMURIUM, Strain/Indicator: TA1538, Metabolic Activation: NONE, Method: STANDARD PLATE)?
The mutagenic call was “inactive; negative”.

What about the mutagenic call (Test System: AMES SALMONELLA TYPHIMURIUM, Strain/Indicator: TA1538, Metabolic Activation: RAT, LIVER, S-9, AROCLOR 1254 (10%), Method: STANDARD PLATE) of the same compound?
The mutagenic call was “inactive; negative”.

And the mutagenic call (Test System: E. COLI, Strain/Indicator: WP2UVRA, Metabolic Activation: NONE, Method: PREINCUBATION)?
The mutagenic call was “inactive; negative”.

What about the mutagenic call (Test System: E. COLI, Strain/Indicator: WP2UVRA, Metabolic Activation: RAT LIVER S-9, PHENOBARBITAL AND BETA-NAPHTHOFLAVONE, Method: PREINCUBATION) of the same compound?
The mutagenic call was “inactive; negative”.

What about the mutagenic call (Test System: MOUSE LYMPHOMA, Strain/Indicator: L5178Y (TK+/TK-), Metabolic Activation: NONE, Method: SUSPENSION/PLATE) of the same compound?
The mutagenic call was “inactive; positive. reevaluation of results: negative”.

What about the mutagenic call (Test System: MOUSE LYMPHOMA, Strain/Indicator: L5178Y (TK+/TK-), Metabolic Activation: RAT, LIVER, S-9, AROCLOR 1254, Method: SUSPENSION/PLATE) of the same compound?
The mutagenic call was “inactive; negative”.

With `CC1CCC(NC(=O)N(CCCl)N=O)CC1` (stereo not drawn) as the compound, how does the mutagenic call (Test System: AMES SALMONELLA TYPHIMURIUM, Strain/Indicator: G46, Metabolic Activation: NONE) read?
Its mutagenic call is “active; positive”.

What about the mutagenic call [1] of the same compound?
The mutagenic call was “active; positive”.

What about the mutagenic call (Test System: AMES SALMONELLA TYPHIMURIUM, Strain/Indicator: TA100, Metabolic Activation: RAT, LIVER, S-9, AROCLOR 1254, Method: STANDARD PLATE) of the same compound?
The mutagenic call was “active; positive”.

What about the mutagenic call (Test System: AMES SALMONELLA TYPHIMURIUM, Strain/Indicator: TA1535, Metabolic Activation: NONE) of the same compound?
The mutagenic call was “active; positive”.

For `Cc1cnc2ccc3c(nc(NO)n3C)c2n1`, which mutagenic call [2] is on record?
Its mutagenic call is “active; positive”.

With `c1ccc2c(OC[C@@H]3CO3)cccc2c1` as the compound, how does the mutagenic call [1] read?
Its mutagenic call is “active; positive”.

With `Fc1ccc2ncccc2c1` as the compound, how does the mutagenic call (End Point: In vitro chromosomal aberrations, Test System: Chinese hamster lung fibroblast cells (CHL/IU), Metabolic Activation: Rat, liver, S-9) read?
The mutagenic call was “active; positive, toxicity at 0.1 mg/ml. (information derived from a figure)”.

What about the mutagenic call (End Point: In vitro micronucleus, Test System: Chinese hamster lung fibroblast cells (CHL/IU), Metabolic Activation: Rat, liver, S-9) of the same compound?
The mutagenic call was “active; positive, cytotoxic at 0.2 mg/ml (information derived from a figure)”.

What about the mutagenic call (Test System: AMES SALMONELLA TYPHIMURIUM, Strain/Indicator: TA100, Metabolic Activation: RAT LIVER S-9, PHENOBARBITAL AND 5,6-BENZOFLAVONE, Method: PREINCUBATION) of the same compound?
Its mutagenic call is “active; positive”.

And the mutagenic call (Test System: AMES SALMONELLA TYPHIMURIUM, Strain/Indicator: TA100, Metabolic Activation: RAT, LIVER, S-9, AROCLOR 1254, Method: PREINCUBATION)?
The mutagenic call was “active; positive”.

And the mutagenic call (Test System: AMES SALMONELLA TYPHIMURIUM, Strain/Indicator: TA100, Metabolic Activation: RAT, LIVER, S-9, PHENOBARBITAL AND 5,6-BENZOFLAVONE, Method: PREINCUBATION)?
Its mutagenic call is “active; positive”.

And the mutagenic call (Test System: AMES SALMONELLA TYPHIMURIUM, Strain/Indicator: TA100, Metabolic Activation: RAT, LIVER, S-9, PHENOBARBITAL AND 5,6-NAPHTHOFLAVONE, Method: PREINCUBATION)?
The mutagenic call was “active; positive”.

What about the mutagenic call (Test System: UDS RODENT HEPATOCYTES, Strain/Indicator: THY INCORP (NON-S-PHASE), Metabolic Activation: NONE, Method: AUTORADIOGRAPHY) of the same compound?
The mutagenic call was “active; positive”.
